According to PubChem BioAssay AID2060627 (Molecular Pharmacology Branch, DTP, NCI, 2025):

Test system: 156681-154-R-J1-PDC complex spheroid viability
Assay: Anticancer human tumor 156681-154-R-J1-PDC patient-derived melanoma cell line growth inhibition [CLK]
Settings: for IC50: curve of first compound; for viability, T/C: stronger effect = lower value
In short: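 Patient-derived tumor cells grown as complex spheroids with HUVEC endothelial cells and mesenchymal stem cells, treated with drug combinations. Concentrations descend in half-log steps from near clinical Cmax, or from 10 microM if Cmax unknown.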

[1] = second compound 0.0316 µM, first compound 0.00316 µM
[2] = second compound 0.0316 µM, first compound 0.01 µM
[3] = second compound 0.0316 µM, first compound 0.0316 µM
[4] = second compound 0.0316 µM, first compound 0.1 µM
[5] = second compound 0.0316 µM, first compound 0.316 µM
[6] = second compound 0.0316 µM, first compound 1 µM
[7] = second compound 0.1 µM, first compound 0.00316 µM
[8] = second compound 0.1 µM, first compound 0.01 µM
[9] = second compound 0.1 µM, first compound 0.0316 µM
[10] = second compound 0.1 µM, first compound 0.1 µM
[11] = second compound 0.1 µM, first compound 0.316 µM
[12] = second compound 0.1 µM, first compound 1 µM
[13] = second compound 0.316 µM, first compound 0.00316 µM
[14] = second compound 0.316 µM, first compound 0.01 µM
[15] = second compound 0.316 µM, first compound 0.0316 µM
[16] = second compound 0.316 µM, first compound 0.1 µM
[17] = second compound 0.316 µM, first compound 0.316 µM
[18] = second compound 0.316 µM, first compound 1 µM
[19] = second compound 1 µM, first compound 0.00316 µM
[20] = second compound 1 µM, first compound 0.01 µM
[21] = second compound 1 µM, first compound 0.0316 µM
[22] = second compound 1 µM, first compound 0.1 µM
[23] = second compound 1 µM, first compound 0.316 µM
[24] = second compound 1 µM, first compound 1 µM
[25] = second compound 3.16 µM, first compound 0.00316 µM
[26] = second compound 3.16 µM, first compound 0.01 µM
[27] = second compound 3.16 µM, first compound 0.0316 µM
[28] = second compound 3.16 µM, first compound 0.1 µM
[29] = second compound 3.16 µM, first compound 0.316 µM
[30] = second compound 3.16 µM, first compound 1 µM
[31] = second compound 10 µM, first compound 0.00316 µM
[32] = second compound 10 µM, first compound 0.01 µM
[33] = second compound 10 µM, first compound 0.0316 µM
[34] = second compound 10 µM, first compound 0.1 µM
[35] = second compound 10 µM, first compound 0.316 µM
[36] = second compound 10 µM, first compound 1 µM
[37] = second compound 0.0316 µM, first compound 3.16 µM
[38] = second compound 0.0316 µM, first compound 10 µM
[39] = second compound 0.1 µM, first compound 3.16 µM
[40] = second compound 0.1 µM, first compound 10 µM
[41] = second compound 0.316 µM, first compound 3.16 µM
[42] = second compound 0.316 µM, first compound 10 µM
[43] = second compound 1 µM, first compound 3.16 µM
[44] = second compound 1 µM, first compound 10 µM
[45] = second compound 3.16 µM, first compound 3.16 µM
[46] = second compound 3.16 µM, first compound 10 µM
[47] = second compound 10 µM, first compound 3.16 µM
[48] = second compound 10 µM, first compound 10 µM
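Note: spheroids exposed to the agents for seven days.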
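Throughout, for viability, T/C: 100% = DMSO vehicle control viability.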

## CCc1c2c(nc3ccc(O)cc13)-c1cc3c(c(=O)n1C2)COC(=O)[C@]3(O)CC + CNC(=O)c1ccc(Nc2nc(OC3CCCC3)c3c(-c4ccc5nc(C)oc5c4)c[nH]c3n2)c(OC)c1
Second compound 0.0316 µM
  IC50: < 3.16 nM
Second compound 0.1 µM
  IC50: < 3.16 nM
Second compound 0.316 µM
  IC50: < 3.16 nM
Second compound 1 µM
  IC50: < 3.16 nM
Second compound 3.16 µM
  IC50: < 3.16 nM
Second compound 10 µM
  IC50: < 3.16 nM
[1]
  viability, T/C: 27.7%
[2]
  viability, T/C: 15%
[3]
  viability, T/C: 18%
[4]
  viability, T/C: 19.4%
[5]
  viability, T/C: 16.6%
[6]
  viability, T/C: 4.47%
[7]
  viability, T/C: 24.1%
[8]
  viability, T/C: 16.7%
[9]
  viability, T/C: 14%
[10]
  viability, T/C: 17.7%
[11]
  viability, T/C: 14.9%
[12]
  viability, T/C: 5.02%
[13]
  viability, T/C: 27.4%
[14]
  viability, T/C: 14.2%
[15]
  viability, T/C: 12.8%
[16]
  viability, T/C: 16.4%
[17]
  viability, T/C: 14.8%
[18]
  viability, T/C: 5.29%
[19]
  viability, T/C: 21.9%
[20]
  viability, T/C: 11.3%
[21]
  viability, T/C: 10.5%
[22]
  viability, T/C: 14.7%
[23]
  viability, T/C: 9.49%
[24]
  viability, T/C: 5.41%
[25]
  viability, T/C: 20.9%
[26]
  viability, T/C: 15.8%
[27]
  viability, T/C: 10.4%
[28]
  viability, T/C: 14.2%
[29]
  viability, T/C: 13.1%
[30]
  viability, T/C: 2.05%
[31]
  viability, T/C: 18.9%
[32]
  viability, T/C: 12%
[33]
  viability, T/C: 11.1%
[34]
  viability, T/C: 12.5%
[35]
  viability, T/C: 9.62%
[36]
  viability, T/C: 1.61%

## Nc1ccccc1NC(=O)c1ccc(CNC(=O)OCc2cccnc2)cc1 + CN1CCN(c2cc(C(=O)Nc3cc4cc(-c5cnn(C)c5)ccc4cn3)ccn2)CC1
Second compound 0.0316 µM
  IC50: 563 nM
Second compound 0.1 µM
  IC50: 505 nM
Second compound 0.316 µM
  IC50: < 31.6 nM
Second compound 1 µM
  IC50: < 31.6 nM
Second compound 3.16 µM
  IC50: < 31.6 nM
Second compound 10 µM
  IC50: < 31.6 nM
[3]
  viability, T/C: 104%
[4]
  viability, T/C: 86.9%
[5]
  viability, T/C: 69.7%
[6]
  viability, T/C: 33.3%
[37]
  viability, T/C: 5.05%
[38]
  viability, T/C: 0.29%
[9]
  viability, T/C: 95.2%
[10]
  viability, T/C: 89.5%
[11]
  viability, T/C: 65.2%
[12]
  viability, T/C: 27.4%
[39]
  viability, T/C: 7.52%
[40]
  viability, T/C: 1.57%
[15]
  viability, T/C: 23.7%
[16]
  viability, T/C: 20.4%
[17]
  viability, T/C: 19.8%
[18]
  viability, T/C: 14.6%
[41]
  viability, T/C: 1.03%
[42]
  viability, T/C: 0.71%
[21]
  viability, T/C: 0.22%
[22]
  viability, T/C: 1.38%
[23]
  viability, T/C: 0.48%
[24]
  viability, T/C: 0.97%
[43]
  viability, T/C: 2.99%
[44]
  viability, T/C: 1.95%
[27]
  viability, T/C: 0.06%
[28]
  viability, T/C: 0.81%
[29]
  viability, T/C: 0.11%
[30]
  viability, T/C: 0.92%
[45]
  viability, T/C: 1.15%
[46]
  viability, T/C: 1.84%
[33]
  viability, T/C: 0.03%
[34]
  viability, T/C: 0.96%
[35]
  viability, T/C: 0.58%
[36]
  viability, T/C: 0.15%
[47]
  viability, T/C: 3.86%
[48]
  viability, T/C: 2.47%

## CC(Nc1ccc2c(c1)OCCn1cc(N3C(=O)OCC3C(F)F)nc1-2)C(N)=O (stereo not drawn) + CNC(=O)c1ccc(Nc2nc(OC3CCCC3)c3c(-c4ccc5nc(C)oc5c4)c[nH]c3n2)c(OC)c1
Second compound 0.0316 µM
  IC50: 452 nM
Second compound 0.1 µM
  IC50: 399 nM
Second compound 0.316 µM
  IC50: 49.4 nM
Second compound 1 µM
  IC50: < 31.6 nM
Second compound 3.16 µM
  IC50: < 31.6 nM
Second compound 10 µM
  IC50: < 31.6 nM
[3]
  viability, T/C: 76.8%
[4]
  viability, T/C: 61%
[5]
  viability, T/C: 44.5%
[6]
  viability, T/C: 53.9%
[37]
  viability, T/C: 33.1%
[38]
  viability, T/C: 23.1%
[9]
  viability, T/C: 49.9%
[10]
  viability, T/C: 64.9%
[11]
  viability, T/C: 47.7%
[12]
  viability, T/C: 43%
[39]
  viability, T/C: 26.4%
[40]
  viability, T/C: 19.2%
[15]
  viability, T/C: 52.7%
[16]
  viability, T/C: 47%
[17]
  viability, T/C: 34.1%
[18]
  viability, T/C: 27.9%
[41]
  viability, T/C: 24.6%
[42]
  viability, T/C: 15.8%
[21]
  viability, T/C: 47.5%
[22]
  viability, T/C: 30%
[23]
  viability, T/C: 28.1%
[24]
  viability, T/C: 24.3%
[43]
  viability, T/C: 19.3%
[44]
  viability, T/C: 8.72%
[27]
  viability, T/C: 48.3%
[28]
  viability, T/C: 36.1%
[29]
  viability, T/C: 27.2%
[30]
  viability, T/C: 18.9%
[45]
  viability, T/C: 10.7%
[46]
  viability, T/C: 8.42%
[33]
  viability, T/C: 33.4%
[34]
  viability, T/C: 29.9%
[35]
  viability, T/C: 18.1%
[36]
  viability, T/C: 17.7%
[47]
  viability, T/C: 13.9%
[48]
  viability, T/C: 7.86%

## COc1c(OCCCN2CCOCC2)ccc2c3n(c(=NC(=O)c4cnc(N)nc4)nc12)CCN3 + CN1CCN(c2cc(C(=O)Nc3cc4cc(-c5cnn(C)c5)ccc4cn3)ccn2)CC1
Second compound 0.0316 µM
  IC50: 16 nM
Second compound 0.1 µM
  IC50: 12.9 nM
Second compound 0.316 µM
  IC50: < 3.16 nM
Second compound 1 µM
  IC50: < 3.16 nM
Second compound 3.16 µM
  IC50: < 3.16 nM
Second compound 10 µM
  IC50: < 3.16 nM
[1]
  viability, T/C: 76.1%
[2]
  viability, T/C: 58.8%
[3]
  viability, T/C: 36.8%
[4]
  viability, T/C: 12.7%
[5]
  viability, T/C: 2.94%
[6]
  viability, T/C: 0.44%
[7]
  viability, T/C: 76.2%
[8]
  viability, T/C: 55.5%
[9]
  viability, T/C: 29.6%
[10]
  viability, T/C: 10.3%
[11]
  viability, T/C: 1.15%
[12]
  viability, T/C: 0.6%
[13]
  viability, T/C: 18.1%
[14]
  viability, T/C: 15%
[15]
  viability, T/C: 6.26%
[16]
  viability, T/C: 2.42%
[17]
  viability, T/C: 1.79%
[18]
  viability, T/C: 0.42%
[19]
  viability, T/C: 0.13%
[20]
  viability, T/C: 0.95%
[21]
  viability, T/C: 0.12%
[22]
  viability, T/C: 0.27%
[23]
  viability, T/C: 0.51%
[24]
  viability, T/C: 0.4%
[25]
  viability, T/C: 0.05%
[26]
  viability, T/C: 0.16%
[27]
  viability, T/C: 0.12%
[28]
  viability, T/C: 1.29%
[29]
  viability, T/C: 1.19%
[30]
  viability, T/C: 2.81%
[31]
  viability, T/C: 0.04%
[32]
  viability, T/C: 1.39%
[33]
  viability, T/C: 2.94%
[34]
  viability, T/C: 0.1%
[35]
  viability, T/C: 0.81%
[36]
  viability, T/C: 0.71%
